In ChEMBL document CHEMBL6127046, “Design, synthesis, and preclinical evaluation of 11C/18F-labeled inhibitors for RIPK1 PET imaging” (Eur J Med Chem, 2024):

Assays:
L929 = assay: Anti-necroptosis activity against TNFalpha/Z-VAD-FMK-induced mouse L929 cell necroptosis model assessed as cell viability incubated for 24 hrs by CCK8 assay; format: functional, cell-based; conditions: L929, 24 h
[1] = Drug uptake in mouse brain assessed as maximum standardized uptake value measured upto 60 mins by PET imaging method; format: ADME, tissue-based; conditions: in vivo, 1 h
HT-29 = assay: Anti-necroptosis activity against TNFalpha/SM-164/Z-VAD-FMK-induced human HT-29 cell necroptosis model assessed as cell viability incubated for 24 hrs by CCK8 assay; format: functional, cell-based; conditions: HT-29, 24 h
U-937 = assay: Anti-necroptosis activity against TNFalpha/SM-164/Z-VAD-FMK-induced human U-937 cell necroptosis model assessed as cell viability incubated for 24 hrs by CCK8 assay; format: functional, cell-based; conditions: U-937, 24 h
[2] = Lipophilicity, logD of compound at pH 7.4 by shake-flask method; format: physicochemical; conditions: buffer
[3] = Drug uptake in mouse striatum measured upto 60 mins by PET imaging method; format: ADME; conditions: in vivo, 1 h
[4] = Drug uptake in mouse thalamus measured upto 60 mins by PET imaging method; format: ADME; conditions: in vivo, 1 h
[5] = Drug uptake in mouse hippocampus measured upto 60 mins by PET imaging method; format: ADME; conditions: in vivo, 1 h
[6] = Drug uptake in mouse brain in presence of 1-(7-fluoro-2,3-dihydrobenzo[f][1,4]oxazepin-4(5H)-yl)-2,2-dimethylbutan-1-one by autoradiography; format: ADME, tissue-based; conditions: in vivo
[7] = Drug uptake in mouse brain in presence of Nec-1s by autoradiography; format: ADME, tissue-based; conditions: in vivo
[8] = Metabolic stability in mouse plasma assessed as remaining compound measured at 5 mins by HPLC analysis; format: ADME, cell-free; conditions: read-out: Stability
[9] = Metabolic stability in mouse plasma assessed as remaining compound measured at 10 mins by HPLC analysis; format: ADME, cell-free; conditions: read-out: Stability
[10] = Metabolic stability in mouse plasma assessed as remaining compound measured at 30 mins by HPLC analysis; format: ADME, cell-free; conditions: read-out: Stability
[11] = Drug metabolism in mouse plasma assessed as retention time; format: ADME, cell-free
[12] = Drug metabolism in mouse plasma measured at 11 mins; format: ADME, cell-free
[13] = Metabolic stability in mouse brain assessed as remaining compound measured at 5 mins by HPLC analysis; format: ADME, tissue-based; conditions: read-out: Stability
[14] = Metabolic stability in mouse brain assessed as remaining compound measured at 30 mins by HPLC analysis; format: ADME, tissue-based; conditions: read-out: Stability
[15] = Drug metabolism in mouse blood measured after 10 to 12 mins by HPLC analysis; format: ADME, tissue-based; conditions: time 10-12 min
[16] = Drug metabolism in mouse brain measured after 10 to 12 mins by HPLC analysis; format: ADME, tissue-based; conditions: time 10-12 min
[17] = target: T1, Receptor-interacting serine/threonine-protein kinase 1 (Homo sapiens, UniProt Q13546); assay: Binding affinity to RIPK1 (unknown origin) by KINOMEscan method
T1 sequence (Q13546 whole entry): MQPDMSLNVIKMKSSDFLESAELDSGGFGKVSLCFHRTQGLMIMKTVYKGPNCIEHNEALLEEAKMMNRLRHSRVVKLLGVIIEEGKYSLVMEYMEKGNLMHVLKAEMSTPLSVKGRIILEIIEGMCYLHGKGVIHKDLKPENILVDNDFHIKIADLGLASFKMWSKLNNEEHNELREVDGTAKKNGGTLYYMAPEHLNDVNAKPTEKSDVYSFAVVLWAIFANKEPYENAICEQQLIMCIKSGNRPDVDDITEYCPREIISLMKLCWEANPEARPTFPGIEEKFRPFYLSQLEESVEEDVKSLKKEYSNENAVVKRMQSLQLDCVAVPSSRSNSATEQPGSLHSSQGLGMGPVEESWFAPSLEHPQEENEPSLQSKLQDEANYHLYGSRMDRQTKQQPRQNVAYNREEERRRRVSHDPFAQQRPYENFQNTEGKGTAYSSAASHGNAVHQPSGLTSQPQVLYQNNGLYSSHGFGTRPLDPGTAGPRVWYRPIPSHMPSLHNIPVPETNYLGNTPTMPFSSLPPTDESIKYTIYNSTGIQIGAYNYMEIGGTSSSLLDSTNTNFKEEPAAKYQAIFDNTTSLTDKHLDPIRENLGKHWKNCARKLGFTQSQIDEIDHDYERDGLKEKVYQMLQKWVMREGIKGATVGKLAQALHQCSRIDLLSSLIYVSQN

`CCC(C)(C)C(=O)N1CCOc2ccc(O)cc2C1` showed an EC50 (L929) greater than 10 µM.
Compound `O=C(C1CCN(c2ncc(Br)cn2)CC1)N1CCOc2ccccc2C1` has an EC50 (L929) greater than 10 µM.
For `[11CH3]Oc1cnc(N2CCC(C(=O)N3CCOc4ccc(F)cc4C3)CC2)nc1`, the SUVmax [1] was 0.8.
Work on `COc1nc(N2CCC(C(=O)N3CCOc4ccc(F)cc4C3)CC2)ncc1F` yielded an EC50 (L929) of 6.57 µM.
Compound `COc1ccc2c(c1)CN(C(=O)C1CCN(c3ncc(F)cn3)CC1)CCO2` has an EC50 (L929) of 2.58 µM.
For `CC(C)C(=O)Nc1nc2cc(-c3ccc4c(c3)c(C(=O)NC(C)c3ccccc3)cn4C)ccn2n1` (stereo unspecified), the EC50 (L929) was 0.004 µM, the EC50 (HT-29) was 12.5 nM and the EC50 (U-937) was 12.4 nM.
Compound `O=C(C1CCN(c2ncc(F)cn2)CC1)N1CCOc2ccc(O)cc2C1` has an EC50 (L929) greater than 10 µM.
With `O=C(C1CCN(c2ncc(F)cn2)CC1)N1CCOc2ccccc2C1` the EC50 (L929) was 0.83 µM.
In the case of `CCC(C)(C)C(=O)N1CCOc2ccc(OC)cc2C1`, the EC50 (L929) is reported as 8.96 µM.
For `COc1cnc(N2CCC(C(=O)N3CCOc4ccc(F)cc4C3)CC2)nc1`, the EC50 (L929) was 0.38 µM, the EC50 (HT-29) was 200 nM and the EC50 (U-937) was 2200 nM. The logD [2] was 1.8.
`COc1nc(N2CCC(C(=O)N3CCOc4ccc(Br)cc4C3)CC2)ncc1F` showed an EC50 (L929) of 5.21 µM.
With `O=C(C1CCN(c2ncc(F)cn2)CC1)N1CCOc2ccc(F)cc2C1` the EC50 (L929) was 0.77 µM, the EC50 (HT-29) was 5120 nM and the EC50 (U-937) was 2760 nM. The logD [2] was 2.2.
Compound `O=C(C1CCN(c2ncc(F)cn2)CC1)N1CCOc2ccc(Br)cc2C1` has an EC50 (L929) of 6.93 µM.
`O=C(C1CCN(c2ncc(Br)cn2)CC1)N1CCOc2ccc(F)cc2C1` showed an EC50 (L929) of 2.32 µM.
For `CCC(C)(C)C(=O)N1CCOc2ccc([18F])cc2C1`, the SUVmax [1] was 1.5, the Drug uptake [3] was “Active” and the Drug uptake [4] was “Active”. For the same compound, the Drug uptake [5] was “Active”, the Drug uptake [6] was “Not Active” and the Drug uptake [7] was “Not Active”. It also gave a remaining at 5 min [8] of 72%, a remaining at 10 min [9] of 51% and a remaining at 0.5 h [10] of 25%. For the same compound, the Retention_time [11] was 2.8 min, the Drug metabolism [12] was “Metabolite_Detected” and the remaining at 5 min [13] was 86%. The remaining at 0.5 h [14] was 44%, the Drug metabolism [15] was “Metabolite_Detected” and the Drug metabolism [16] was “Metabolite_Detected”.
`O=C(C1CCN(c2ncc(Br)cn2)CC1)N1CCOc2ccc(Br)cc2C1` gave an EC50 (L929) greater than 10 µM.
For `O=C(C1CCN(c2ncc(O)cn2)CC1)N1CCOc2ccc(F)cc2C1`, the EC50 (L929) was greater than 10 µM.
`O=C(C1CCN(c2ncc([18F])cn2)CC1)N1CCOc2ccc(F)cc2C1` gave an SUVmax [1] of 1.5.
For `COc1cnc(N2CCC(C(=O)N3CCOc4ccccc4C3)CC2)nc1`, the EC50 (L929) was 4.23 µM.
With `CCC(C)(C)C(=O)N1CCOc2ccc(F)cc2C1` the EC50 (L929) was 0.02 µM, the EC50 (HT-29) was 8.04 nM and the EC50 (U-937) was 24.9 nM. It also gave a logD [2] of 3.1 and a Kd [17] of 18 nM.
